Results as given in US6737383B1, “Herbicidal oxadiazolidines” (priority 1999, dated 2004).

Assays:
bedstraw = test: Test B pre/postemergence bedstraw; assay type: in vivo, Galium aparine
Summary of the method: (§1)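 Response is a visual 0-to-10 score relative to untreated plants, where 0 means no effect and 10 means complete control, taken twelve to sixteen days after application. Treatments went onto soil at planting and onto foliage of 1- to 4-leaf plants, using a surfactant-containing non-phytotoxic solvent.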

surinam grass = test: Test B pre/postemergence surinam grass; assay type: in vivo, Brachiaria decumbens
Summary of the method: as §1

cocklebur = test: Test B pre/postemergence cocklebur; assay type: in vivo, Xanthium strumarium
Summary of the method: as §1

corn = test: Test B pre/postemergence corn; assay type: in vivo, Zea mays
Summary of the method: as §1

giant foxtail = test: Test B pre/postemergence giant foxtail; assay type: in vivo, Setaria faberii
Summary of the method: as §1

pigweed = test: Test B pre/postemergence pigweed; assay type: in vivo, Amaranthus retroflexus
Summary of the method: as §1

rape = test: Test B pre/postemergence rape; assay type: in vivo, Brassica napus
Summary of the method: as §1

soybean = test: Test B pre/postemergence soybean; assay type: in vivo, Glycine max
Summary of the method: as §1

sugar beet = test: Test B pre/postemergence sugar beet; assay type: in vivo, Beta vulgaris
Summary of the method: as §1

velvetleaf = test: Test B pre/postemergence velvetleaf; assay type: in vivo, Abutilon theophrasti
Summary of the method: as §1

wheat = test: Test B pre/postemergence wheat; assay type: in vivo, Triticum aestivum
Summary of the method: as §1

wild oat = test: Test B pre/postemergence wild oat; assay type: in vivo, Avena fatua
Summary of the method: as §1

purple nutsedge = test: Test B pre/postemergence purple nutsedge; assay type: in vivo, Cyperus rotundus
Summary of the method: as §1

rice = test: Test B flood test rice; assay type: in vivo, Oryza sativa
Summary of the method: (§2)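 Plants were grown to the 2-leaf stage before treatment with test chemical, then held in a greenhouse for twelve to sixteen days. Injury was visually rated against untreated controls on a 0–10 scale, where 0 is no effect and 10 is complete control.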

smallflower flatsedge = test: Test B flood test smallflower flatsedge; assay type: in vivo, Cyperus difformis
Summary of the method: as §2

duck salad = test: Test B flood test duck salad; assay type: in vivo, Heteranthera limosa
Summary of the method: as §2

[1] = Preemergence, Rate 62 g/ha, scale of 0 to 10 where 0 is no effect and 10 is complete control
[2] = Preemergence, Rate 250 g/ha, scale of 0 to 10 where 0 is no effect and 10 is complete control
[3] = Preemergence, Rate 500 g/ha, scale of 0 to 10 where 0 is no effect and 10 is complete control
[4] = Rate 62 g/ha, Postemergence, scale 0 to 10 (0 no effect, 10 complete control)
[5] = Rate 125 g/ha, Postemergence, scale of 0 to 10 where 0 is no effect and 10 is complete control
[6] = Rate 125 g/ha, Preemergence, scale of 0 to 10 where 0 is no effect and 10 is complete control
[7] = Rate 250 g/ha, Postemergence, scale of 0 to 10 where 0 is no effect and 10 is complete control
[8] = Rate 500 g/ha, Postemergence, scale 0 to 10, 0 no effect, 10 complete control
[9] = Rate 62 g/ha, headed Pre-emergence (flood test species), scale 0 to 10 (0 no effect, 10 complete control)
[10] = Rate 125 g/ha, Pre-emergence, flood test species, scale 0 to 10 where 0 is no effect and 10 is complete control
[11] = Rate 250 g/ha, Pre-emergence, flood-test species, scale 0 to 10, 0 is no effect, 10 is complete control
[12] = Rate 500 g/ha, Pre-emergence, flood test species, scale 0 to 10 (0 no effect, 10 complete control)

CC(C)N(C(=O)n1oc(=O)n(C2CCCC2)c1=O)c1ccc(F)cc1F [Compound 284]
9: Bedstraw plant response rating (bedstraw; [8]) | Giant foxtail plant response rating (giant foxtail; [1]) | Giant foxtail plant response rating (giant foxtail; [2]) | Giant foxtail plant response rating (giant foxtail; [6])
2: Bedstraw plant response rating (bedstraw; [4]) | Cocklebur plant response rating (cocklebur; [5]) | Plant response rating, Cocklebur (cocklebur; [7]) | Cocklebur plant response rating (cocklebur; [8]) | Giant foxtail plant response rating (giant foxtail; [5]) | Rape plant response rating (rape; [1]) | Rape plant response rating (rape; [6]) | Sugarbeets plant response rating (sugar beet; [1]) | Plant response rating, Velvetleaf (velvetleaf; [7])
10: Plant response rating, Giant foxtail (giant foxtail; [3])
1: B. signalgrass plant response rating (surinam grass; [8]) | Rape plant response rating (rape; [4]) | Sugarbeets plant response rating (sugar beet; [4])
0: Bedstraw plant response rating (bedstraw; [1]) | B. signalgrass plant response rating (surinam grass; [4]) | B. signalgrass plant response rating (surinam grass; [5]) | Plant response rating, B. signalgrass (surinam grass; [7]) | Cocklebur plant response rating (cocklebur; [1]) | Plant response rating, Cocklebur (cocklebur; [3]) | Cocklebur plant response rating (cocklebur; [4]) | Corn plant response rating (corn; [1]) | Corn plant response rating (corn; [2]) | Plant response rating, Corn (corn; [3]) | Corn plant response rating (corn; [4]) | Corn plant response rating (corn; [5]) | Corn plant response rating (corn; [6]) | Plant response rating, Corn (corn; [7]) | Corn plant response rating (corn; [8]) | Giant foxtail plant response rating (giant foxtail; [4]) | Soybean plant response rating (soybean; [1]) | Soybean plant response rating (soybean; [2]) | Soybean plant response rating (soybean; [6]) | Velvetleaf plant response rating (velvetleaf; [1]) | Velvetleaf plant response rating (velvetleaf; [2]) | Velvetleaf plant response rating (velvetleaf; [4]) | Velvetleaf plant response rating (velvetleaf; [5]) | Velvetleaf plant response rating (velvetleaf; [6]) | Wheat plant response rating (wheat; [1]) | Wheat plant response rating (wheat; [2]) | Plant response rating, Wheat (wheat; [3]) | Wheat plant response rating (wheat; [4]) | Wheat plant response rating (wheat; [5]) | Wheat plant response rating (wheat; [6]) | Plant response rating, Wheat (wheat; [7]) | Wild oats plant response rating (wild oat; [1]) | Wild oats plant response rating (wild oat; [4]) | Wild oats plant response rating (wild oat; [5]) | Plant response rating, Wild oats (wild oat; [7]) | Nutsedge plant response rating (purple nutsedge; [1]) | Nutsedge plant response rating (purple nutsedge; [2]) | Plant response rating, Nutsedge (purple nutsedge; [3]) | Nutsedge plant response rating (purple nutsedge; [4]) | Nutsedge plant response rating (purple nutsedge; [5]) | Nutsedge plant response rating (purple nutsedge; [6]) | Plant response rating, Nutsedge (purple nutsedge; [7]) | Rice plant response rating (rice; [9]) | Rice plant response rating (rice; [10]) | Rice plant response rating (rice; [11]) | Rice plant response rating (rice; [12]) | S. Flatsedge plant response rating (smallflower flatsedge; [9]) | S. Flatsedge plant response rating (smallflower flatsedge; [10]) | S. Flatsedge plant response rating (smallflower flatsedge; [11]) | S. Flatsedge plant response rating (smallflower flatsedge; [12]) | Ducksalad plant response rating (duck salad; [9]) | Ducksalad plant response rating (duck salad; [10]) | Ducksalad plant response rating (duck salad; [11]) | Ducksalad plant response rating (duck salad; [12])
8: Bedstraw plant response rating (bedstraw; [2]) | Plant response rating, Bedstraw (bedstraw; [3]) | Bedstraw plant response rating (bedstraw; [6]) | Plant response rating, B. signalgrass (surinam grass; [3]) | Plant response rating, Redroot pigweed (pigweed; [3])
7: Redroot pigweed plant response rating (pigweed; [2]) | Rape plant response rating (rape; [2]) | Plant response rating, Rape (rape; [3]) | Plant response rating, Velvetleaf (velvetleaf; [3])
3: Plant response rating, Giant foxtail (giant foxtail; [7]) | Redroot pigweed plant response rating (pigweed; [4]) | Rape plant response rating (rape; [5]) | Plant response rating, Soybean (soybean; [3]) | Sugarbeets plant response rating (sugar beet; [5]) | Wild oats plant response rating (wild oat; [2])
6: Plant response rating, Bedstraw (bedstraw; [7]) | Redroot pigweed plant response rating (pigweed; [6]) | Plant response rating, Redroot pigweed (pigweed; [7]) | Sugarbeets plant response rating (sugar beet; [2]) | Plant response rating, Sugarbeets (sugar beet; [3])
4: Redroot pigweed plant response rating (pigweed; [5]) | Plant response rating, Rape (rape; [7]) | Soybean plant response rating (soybean; [4]) | Soybean plant response rating (soybean; [5]) | Plant response rating, Soybean (soybean; [7])
5: Bedstraw plant response rating (bedstraw; [5]) | B. signalgrass plant response rating (surinam grass; [1]) | B. signalgrass plant response rating (surinam grass; [2]) | B. signalgrass plant response rating (surinam grass; [6]) | Redroot pigweed plant response rating (pigweed; [1]) | Sugarbeets plant response rating (sugar beet; [6]) | Plant response rating, Sugarbeets (sugar beet; [7]) | Plant response rating, Wild oats (wild oat; [3])
